Laboratory results from patent US10328092B2, “Methods and compositions for treatment of drug addiction” (The Royal Institution for the Advancement of Learning / …, priority 2015, dated 2019).

Tested on: microglia in the nucleus accumbens
Test: Microglia activation in nucleus accumbens (Iba1 immunostaining, morphology)
Format: in vivo, mouse
Procedure: Resting microglia have a ramified morphology but continuously survey the healthy brain and respond to a variety of activation signals by undergoing progressive morphological and functional changes (Kettenmann et al., 2011). Cocaine administration could activate microglia in the NAc, which could lead to the observed elevation of TNFα. Using the microglia marker Iba1, microglia was labeled in adult mice, 24 hours after a single cocaine injection, 24 hrs after 5 days of daily cocaine injections, or after 10 days of drug abstinence. Although no change was identified in the number of microglia in the NAc at any time point (FIG. 10E), Iba1 intensity was increased in microglia by 5 days of cocaine, and after a period of abstinence (FIG. 6C-D), indicating activation. […] In contrast to the change in microglia, no activation of astrocytes was observed, as judged by GFAP expression. […] This is consistent with the observation that TNFα is derived from microglia and not astrocytes during sensitization.
Mice (8-10 weeks) were perfused and their brains submerged overnight in 4% PFA, cryoprotected with 30% sucrose, and cut in 30 μm thick coronal slices using a cryostat. […] Images of the ventral striatum (nucleus accumbens core and shell) were acquired with a 40× or 60× objective and stacks of 25-30 optical sections (1 μm per section) of depth were Z-projected into a single window and analysed using ImageJ software (NIH).
The number of Iba1+ microglia were manually counted from 212×212 μm (60× objectives) or 317×317 μm (40× objectives) images. TNFα intensity was measured using the mean grey value of the entire image while Iba1 intensity measurements were obtained using a thresholded area to highlight only the microglia. Cell body area (μm^2) was measured based on Iba1 staining and using the freehand selection tool. […] The following parameters were analyzed for 40 microglia per group: total process length (sum of length of all processes), total process volume, process diameter and number of branch points and terminals. […]

For `COC(=O)[C@H]1[C@@H](OC(=O)c2ccccc2)C[C@@H]2CC[C@H]1N2C` [cocaine], the “microglia cell body area” value (5 d cocaine) was 37.2±0.9 μm^2 and the “decrease of total length of microglia processes” value (after 5 days cocaine) was 20%.

monophosphoryl lipid A [MPLA] was tested, and the “Iba1 intensity in nucleus accumbens” value (24 hours after a single MPLA injection 10 μg, after 10 day withdrawal from cocaine) was “significantly increased”.
